For one compound, IC50 results are on record in patent publication US9096595B2, “7-(heteroaryl-amino)-6,7,8,9-tetrahydropyrido[1,2-a]indol acetic acid derivatives and their use as prostaglandin D2 receptor modulators” (Actelion Pharmaceuticals Ltd, priority 2011, dated 2015).

The target in experiment [1] is T1, hCRTH2 receptor (Homo sapiens (Human), UniProt Q9Y5Y4). Briefly: hCRTH2 receptor membranes radioligand (3H-PGD2) displacement assay. The note with it: 3H-PGD2 2.5 nM, HEK293-hCRTH2 membrane fragments, Binding-Buffer with 0.1% BSA. On the procedure:
(§1) First, recombinant HEK293-hCRTH2 cells were detached from culture plates into 5 ml buffer A/plate (Buffer A: 5 mM Tris, 1 mM MgCl2-6H2O pH=7.4) using a rubber policeman. Cells were then transferred into centrifugation tubes and centrifuged for 5 min at 400 g. The cell pellet was resuspended in the same buffer and tubes were frozen at −80° C. Cells were thawed and membrane fragments were generated by homogenization using a polytron homogenizer (30 seconds). The membrane fragments were then centrifuged at 3000 g for 20 minutes and resuspended in buffer C (Buffer C: 75 mM Tris, 25 mM MgCl2, 250 mM Saccharose pH 7.4). Aliquots of membrane fragments were stored at −20° C.
(§2) Binding assay was performed in a final assay volume of 250 μl. First, 25 μl of test compound, previously diluted in Binding-Buffer (Binding-Buffer: 50 mM Tris-Base, 100 mM NaCl, 1 mM EDTA, 0.1% BSA (protease free), 0.01% NaN3, 10 mM MnCl2 pH 7.0) was placed into each well. After addition of 75 μl Binding-Buffer, 50 μl of the radioligand ^3H-PGD2 (at 2.5 nM (220.000 dpm/well) from ANAWA ART0662) was added to each well. Binding assay was started by addition of 100 μl CRTH2 membrane fragments, reaching a final concentration of 20 μg/well. For non-specific binding, PGD2 was added to the reaction mixture to […] final concentration. This assay mix was incubated for 90 minutes at room temperature and then filtered through a GF/C filter 96-well plate which was pre-soaked for 3 hours in 0.5% polyethyleneimine (PEI). The filter-wells were washed three times with ice cold Binding-Buffer. Then, 40 μl of Microscint-40 (Packard) was added to each well and the retained radioactivity quantified in a Topcount (Packard).

The target of experiment [2] is T1, hCRTH2 receptor. Kind of experiment: Radioligand displacement assay in presence of human serum albumin (HSA). The note with it: 3H-PGD2 2.5 nM, HEK293-hCRTH2 membrane fragments, Binding-Buffer-HSA with 0.5% human serum albumin instead of 0.1% BSA. The procedure:
as §1, §2
Radioligand displacement assay in presence of human serum albumin (HSA) was performed as described above, with following modifications. Binding-Buffer-HSA: Binding-buffer+0.5% Sigma Albumin from Human serum A1887 (instead of 0.1% BSA). A volume of 25 μl test compound, previously diluted in Binding-Buffer-HSA was placed into each well. After addition of 75 μl Binding-Buffer-HSA, 50 μl of ^3H-PGD2 (at 2.5 nM (220.000 dpm/well) from ANAWA ART0662) was added to each well. Remaining protocol was identical as described above.

T1 sequence (Q9Y5Y4 whole entry, the tested form may be a part): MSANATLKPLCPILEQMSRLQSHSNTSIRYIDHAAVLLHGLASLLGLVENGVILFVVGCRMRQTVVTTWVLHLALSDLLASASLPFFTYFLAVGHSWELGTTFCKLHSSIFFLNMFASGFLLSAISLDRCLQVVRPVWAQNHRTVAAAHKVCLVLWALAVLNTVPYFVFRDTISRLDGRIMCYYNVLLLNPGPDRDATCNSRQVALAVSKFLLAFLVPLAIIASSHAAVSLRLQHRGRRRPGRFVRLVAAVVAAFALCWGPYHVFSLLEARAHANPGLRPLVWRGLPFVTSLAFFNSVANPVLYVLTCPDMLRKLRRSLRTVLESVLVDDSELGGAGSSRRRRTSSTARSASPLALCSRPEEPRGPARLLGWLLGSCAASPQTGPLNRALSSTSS

The term IC50 denotes the point on the concentration scale where inhibition reaches its midpoint. In the case of `O=C(O)Cc1c2n(c3cc(Cl)ccc13)CC(N(CC1CC1)c1ncc(F)cn1)CC2` (centres unmarked) [Example 51, 2-(3-chloro-7-((cyclopropylmethyl)(5-fluoropyrimidin-2-yl)amino)-6,7,8,9-tetrahydropyrido[1,2-a]indol-10-yl)acetic acid], the IC50 is 0.6 nM at hCRTH2 receptor [1] and 9 nM on hCRTH2 receptor [2].
